From patent EP0119446A2, “Growth promoting aminophenylethyl amine derivatives” (BAYER AG, priority 1983, dated 1984) come the findings set out here.

This test deals with Ratten, weiblich. The test is described as follows: Feeding trial in rats (feed intake, weight gain, feed conversion). The class given is in vivo, Ratten (SPF Wistar). The note with it: n = 6. The source says: Die Tiere wurden 2 Tage an die neuen Haltungsbedingungen adaptiert, wobei generell das Versuchsfutter ohne Wirkstoffzusatz verabreicht wurde. Am dritten Versuchstag wurden die Tiere randomisiert und anschließend die Versuchsgruppen so gebildet, daß sowohl die Mittelwerte als auch die Streuungen in den Körpergewichten zwischen den Gruppen gleich waren. Nach einer 5-tägigen Vorperiode wurde eine 8-tägige Hauptperiode durchgeführt, in denen Futteraufnahme, Zuwachs und Futterverwertung bestimmt wurden.
Es wurden folgende Behandlungen geprüft: • b 1) Negativkontrolle (n = 12) • b 2) 25 ppm (Wirkstoff Beispiel 12) (n = 6)
Die Tiere wurden 2 Tage an die neuen Haltungsbedingungen adaptiert, wobei generell das Versuchsfutter ohne Wirkstoffzusatz verabreicht wurde. Am dritten Versuchstag wurden die Tiere randomisiert und anschließend die Versuchsgruppen so gebildet, daß sowohl die Mittelwerte als auch die Streuungen in den Körpergewichten zwischen den Gruppen gleich waren. Nach einer 5-tägigen Vorperiode wurde eine 7-tägige Hauptperiode durchgeführt, in denen Futteraufnahme, Zuwachs und Futterverwertung bestimmt wurden.
Es wurden folgende Behandlungen geprüft: • b 1) Negativkontrolle (n = 12) • b 2) 0,2 ppm (Wirkstoff Beispiel 12) (n = 6) • b 3) 10 ppm (Wirkstoff Beispiel 12) (n = 6)
Es wurden folgende Behandlungen geprüft: • b 1) Negativkontrolle (n = 12) • b 2) 25 ppm (Wirkstoff Beispiel 2) (n = 6)
Die Tiere wurden 2 Tage an die neuen Haltungsbedingungen adaptiert, wobei generell das Versuchsfutter ohne Wirkstoffzusatz verabreicht wurde. Am dritten Versuchstag wurden die Tiere randomisiert und anschließend die Versuchsgruppen so gebildet, daß sowohl die Mittelwerte als auch die Streuungen in den Körpergewichten zwischen den Gruppen gleich waren. Nach einer 7-tägigen Vorperiode wurde eine 7-tägige Hauptperiode durchgeführt, in denen Futteraufnahme, Zuwachs und Futterverwertung bestimmt wurden.
Es wurden folgende Behandlungen geprüft: • b 1) Negativkontrolle (n = 24) • b 2) 25 ppm (Wirkstoff Beispiel 2) (n = 6)
Es wurden folgende Behandlungen geprüft: • b 1) Negativkontrolle (n = 12) • b 2) 0,2 ppm (Wirkstoff Beispiel 1) (n = 6) • b 3) 10 ppm (Wirkstoff Beispiel 1) (n = 6)

Where [1] appears, read: 0,2 ppm in feed, whole test period 12 Tage (5-day pre-period + 7-day main period), negative control 200.
[2] abbreviates: 0,2 ppm in feed, whole test period 12 Tage, negative control 4,88.
Setting [3] is: 0,2 ppm in feed, whole test period 12 Tage, negative control 41,0.
Where [4] appears, read: 10 ppm in feed, whole test period 12 Tage (5-day pre-period + 7-day main period), negative control 200.
The mark [5] stands for this setting: 10 ppm in feed, whole test period 12 Tage, negative control 4,88.
Setting [6] is: 10 ppm in feed, whole test period 12 Tage, negative control 41,0.
Where [7] appears, read: 25 ppm in feed, whole test period 13 Tage (5-day pre-period + 8-day main period), negative control 174.
[8] abbreviates: 25 ppm in feed, whole test period 13 Tage, negative control 5,06.
Setting [9] is: 25 ppm in feed, whole test period 13 Tage, negative control 35,4.

SMILES strings stand for the structures.

On to `Cc1cc(NCC(O)c2cc(Cl)c(N)c(Cl)c2)ccc1Oc1ccc(SC(F)(F)F)cc1` (stereo not drawn) [Bsp. 1], for which the Futter-aufnahme by setting is: under setting [1], 204 g; under setting [4], 206 g; under setting [7], 184 g. For the same molecule, the Futter-verwer-tung under setting [2] is listed as 4,25 g/g, the Futter-verwer-tung under setting [5] was 4,46 g/g and the Futter-verwer-tung under setting [8] was 4,23 g/g. Also, the Zuwachs is on record as 47,9 g under setting [3], 46,2 g under setting [6] and 43,9 g under setting [9].
Turning to `Cc1cc(NCC(O)c2cc(Cl)c(N)c(Cl)c2)ccc1Oc1ccc(S(=O)(=O)C(F)(F)F)cc1` (stereo not drawn) [Bsp. 2], the Futter-aufnahme under setting [7] is 180 g and the Futter-aufnahme (25 ppm in feed, whole test period 14 Tage (7-day pre-period + 7-day main period), negative control 225) amounted to 233 g. Besides, the Futter-verwer-tung runs as follows: under setting [8], 4,85 g/g; (25 ppm in feed, whole test period 14 Tage, negative control 5,30) 4,88 g/g. Moreover, the Zuwachs is reported as 37,5 g under setting [9] and 47,8 g (25 ppm in feed, whole test period 14 Tage, negative control 40,6).
`CC(C)C(C)[Si](C)(C)OC(CN(C(C)(C)C)[Si](C)(C)C(C)C(C)C)c1cc(Cl)c(N)c(Cl)c1` (stereo not drawn) [Bsp. 12]: the Futter-aufnahme by setting is: under setting [1], 217 g; under setting [4], 204 g; under setting [7], 193 g. The Futter-verwer-tung is given as 4,13 g/g under setting [2], 4,03 g/g under setting [5] and 3,77 g/g under setting [8]. Moreover, the Zuwachs is, setting by setting: under setting [3], 52,5 g; under setting [6], 50,7 g; under setting [9], 51,9 g.
